Measurements from ChEMBL document CHEMBL1201862, “PubChem BioAssay data set” (2004).
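Test compounds were applied to cells in 96-well plates for 48 hours at 5 doses. GI50 marks 50% less growth.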 Calls of active or inactive are those of the source. Rule as the data show it: active = GI50 up to about 1.1 µM and inactive = higher. Square brackets hold non-standard residues; d marks the D form. Peptide text beside a SMILES is read from it. * marks the point of attachment. ξ: configuration not given here. ξD = NC(CC(=O)O)C(=O)O; Ac3c = NC1(C(=O)O)CC1; Boc = CC(C)(C)OC(=O)*; OtBu = CC(C)(C)O*

How the values were obtained:
Assay in all cases: inhibition of tumour cell growth, NCI panel, 48 h
[1] = system: A498
[2] = system: M14
[3] = system: K562
[4] = system: UACC-62
[5] = system: A549
[6] = system: IGROV-1
[7] = system: Malme-3M
[8] = system: UO-31
[9] = system: SN12C
[10] = system: SR
[11] = system: U-251
[12] = system: NCI-H460
[13] = system: KM12
[14] = system: BT-549
[15] = system: CCRF-CEM
[16] = system: MOLT-4
[17] = system: MDA-MB-231
[18] = system: LOX IMVI
[19] = system: EKVX
[20] = system: HOP-92

Measured: GI50

O=C(O)c1cc(CCc2ccc(O)c(O)c2)ccc1O
inactive: [1] > 100 µM | [2] > 100 µM | [3] 21.3 µM | [4] > 100 µM | [5] > 100 µM | [6] > 100 µM | [7] > 100 µM | [8] > 100 µM | [9] > 100 µM | [10] 24.4 µM | [11] > 100 µM | [12] > 100 µM | [13] > 100 µM | [14] > 100 µM | [15] > 100 µM | [16] > 100 µM

COc1cc(OC)c(OC)cc1/C=C1\C=Cc2ccccc21
inactive: [1] > 10 µM | [3] 5.5 µM | [5] 26.5 µM | [6] 26.9 µM | [17] 12.6 µM | [7] 23.1 µM | [18] 13 µM | [8] 16.3 µM | [9] 18.8 µM | [10] 5.04 µM | [11] 9.12 µM | [12] 10.3 µM | [13] 10.3 µM | [19] 19.2 µM | [15] 16.3 µM | [16] 6.31 µM

O=C(CCC(=O)Nc1ccc(Cl)c(Cl)c1)Cc1nc2ccccc2o1
inactive: [1] > 100 µM | [2] > 100 µM | [3] > 100 µM | [4] > 100 µM | [5] > 100 µM | [6] > 100 µM | [20] > 100 µM | [7] > 100 µM | [18] > 100 µM | [8] > 100 µM | [9] > 100 µM | [10] > 100 µM | [11] > 100 µM | [12] > 100 µM | [13] > 100 µM | [19] 67.3 µM | [15] > 100 µM | [16] > 100 µM

COC(=O)C(C(=O)C(=O)Nc1ccc(C)cc1C)c1csc(-n2nc(-c3ccccc3)cc2-c2ccccc2)n1 (centres undefined)
inactive: [1] > 100 µM | [2] > 100 µM | [3] 93.5 µM | [4] 61.7 µM | [5] > 100 µM | [6] > 100 µM | [20] > 100 µM | [7] > 100 µM | [18] 80 µM | [8] 45.6 µM | [9] > 100 µM | [10] > 100 µM | [11] 67.5 µM | [12] > 100 µM | [13] 65.2 µM | [19] 73.3 µM | [15] 83.2 µM | [16] 22.5 µM

Cc1cc2cc3c(Cl)c(CCCl)c(C)nc3cc2c(Cl)c1CCCl
inactive: [1] 19.2 µM | [3] 17.4 µM | [4] 15.6 µM | [5] 17.8 µM | [6] 26.2 µM | [20] 13.9 µM | [7] 20.8 µM | [18] 15.2 µM | [8] 16.1 µM | [10] 11.3 µM | [11] 23.5 µM | [12] 14.7 µM | [13] 17.9 µM | [14] 19.9 µM | [19] 2.87 µM | [15] 23.4 µM | [16] 16 µM

CC(C)N(C(=O)C12C3C4C5C3C1(C(=O)N(C(C)C)C(C)C)C5(C#N)C42)C(C)C (centres undefined)
inactive: [1] > 100 µM | [2] > 100 µM | [3] 33.7 µM | [4] > 100 µM | [5] 86.3 µM | [6] > 100 µM | [20] > 100 µM | [7] > 100 µM | [18] 20.8 µM | [8] > 100 µM | [9] > 100 µM | [10] 17.9 µM | [11] > 100 µM | [12] 61 µM | [13] > 100 µM | [19] > 100 µM | [15] 22 µM | [16] > 100 µM

CCCCCCCCCC(O)CC(=O)c1c(O)cccc1O (centres undefined)
inactive: [1] 30.5 µM | [2] 20.1 µM | [3] 22.1 µM | [5] 23.6 µM | [6] 18.8 µM | [17] 21.4 µM | [20] 25.4 µM | [7] 16 µM | [18] 20.4 µM | [8] 19.3 µM | [9] 31.3 µM | [11] 36.7 µM | [13] 19.3 µM | [19] 21.9 µM | [15] 46.3 µM | [16] 19.5 µM

CC(C)(C)OC(=O)NC1CCCC1=O (centres undefined)
inactive: [1] 8.3 µM | [2] > 100 µM | [3] > 100 µM | [4] > 100 µM | [5] > 100 µM | [20] > 100 µM | [7] > 100 µM | [18] > 100 µM | [8] > 100 µM | [9] > 100 µM | [10] > 100 µM | [11] > 100 µM | [12] > 100 µM | [13] > 100 µM | [19] > 100 µM | [15] > 100 µM | [16] > 100 µM

O=[N+]([O-])/C(C(Cl)=C(Cl)Cl)=C(/Nc1cccc2cccnc12)n1nnc2ccccc21
inactive: [2] 12.2 µM | [3] 6.41 µM | [5] 27.3 µM | [7] 6.85 µM | [8] 15.8 µM | [9] 16.3 µM | [12] 31.3 µM | [13] 16 µM | [14] 14.2 µM | [19] 24.4 µM | [15] 2.88 µM | [16] 3.57 µM

C=C1CCC2C(C)(CO)C(O)CCC2(C)C1CC(O)C1=CCOC1=O (centres undefined)
inactive: [1] > 100 µM | [2] 47.3 µM | [3] 34.1 µM | [4] > 100 µM | [5] 55.2 µM | [6] 61.1 µM | [20] > 100 µM | [7] > 100 µM | [18] 33.5 µM | [8] > 100 µM | [9] 31.4 µM | [10] 18 µM | [11] 17.3 µM | [12] 49.9 µM | [13] 36.1 µM | [19] 96.2 µM | [15] 22.9 µM | [16] > 100 µM

COC(=O)/C([Se]c1c(C)cc(C)cc1C)=C(\[Se]c1c(C)cc(C)cc1C)C(=O)OC
inactive: [1] > 100 µM | [2] > 100 µM | [3] > 100 µM | [4] > 100 µM | [5] > 100 µM | [6] > 100 µM | [20] > 100 µM | [7] > 100 µM | [18] > 100 µM | [8] > 100 µM | [9] > 100 µM | [10] > 100 µM | [11] > 100 µM | [12] > 100 µM | [13] > 100 µM | [19] > 100 µM | [15] > 100 µM | [16] > 100 µM

Cc1ccc2nc(NC(=O)/C(=N\NC(=S)NN)C3C(=O)NC(=S)NC3=O)sc2c1
inactive: [1] > 100 µM | [2] > 100 µM | [3] > 100 µM | [4] > 100 µM | [5] > 100 µM | [6] > 100 µM | [20] > 100 µM | [7] > 100 µM | [18] > 100 µM | [8] > 100 µM | [9] > 100 µM | [10] > 100 µM | [11] > 100 µM | [12] > 100 µM | [13] > 100 µM | [19] > 100 µM | [15] > 100 µM | [16] > 100 µM

NC(=S)N/N=C1/CCCC2CCCC[C@@H]12 (some centres undefined)
inactive: [1] > 100 µM | [2] > 100 µM | [3] > 100 µM | [4] > 100 µM | [5] > 100 µM | [6] > 100 µM | [17] > 100 µM | [20] > 100 µM | [7] > 100 µM | [18] > 100 µM | [8] > 100 µM | [10] > 100 µM | [11] > 100 µM | [12] > 100 µM | [13] > 100 µM | [19] 35 µM | [15] > 100 µM | [16] > 100 µM

c1ccc(/N=C2\c3ccccc3CN2c2ccccn2)nc1
inactive: [1] > 100 µM | [2] > 100 µM | [3] 65 µM | [4] > 100 µM | [5] > 100 µM | [6] > 100 µM | [17] > 100 µM | [20] 15.7 µM | [18] 96.2 µM | [8] > 100 µM | [9] > 100 µM | [11] > 100 µM | [12] 89.3 µM | [13] > 100 µM | [14] > 100 µM | [19] > 100 µM | [16] 54.6 µM

NC(=S)N/N=C\CC(O)(C(F)(F)F)C(F)(F)F
inactive: [1] > 10 µM | [2] > 10 µM | [3] > 10 µM | [4] > 10 µM | [5] > 10 µM | [6] > 10 µM | [17] > 10 µM | [20] > 10 µM | [7] > 10 µM | [18] > 10 µM | [8] > 10 µM | [9] > 10 µM | [10] > 10 µM | [11] > 10 µM | [12] > 10 µM | [13] > 10 µM | [19] > 10 µM | [15] > 10 µM | [16] > 10 µM

COC(=O)C1(NC(=O)C(CC(=O)OC(C)(C)C)NC(=O)OC(C)(C)C)CC1 (centres undefined) (Boc-[ξD](OtBu)-[Ac3c]-OMe)
inactive: [1] > 100 µM | [2] > 100 µM | [3] > 100 µM | [4] 1.19 µM | [5] > 100 µM | [6] > 100 µM | [17] > 100 µM | [7] > 100 µM | [18] > 100 µM | [8] > 100 µM | [9] > 100 µM | [11] > 100 µM | [12] > 100 µM | [13] > 100 µM | [14] > 100 µM | [19] > 100 µM | [15] > 100 µM | [16] > 100 µM
